Experimental data reported in patent publication US4160829A, “Antibacterial 1,2,4-oxadiazolylacetamido cephalosporins” (Gist-Brocades N.V., priority 1972, dated 1979).
Values after ≈ are worked out from the molar mass of the structure shown.

Tests used:
Strep. faec. L 80 = assay: agar serial dilution test; assay type: cell-based, Streptococcus faecalis; conditions: agar serial dilution, 24 hours, 37° C.
acute toxicity in mice = conditions: mouse, in vivo, ip; mice (Swiss), one intraperitoneal administration
Protocol: (a) For sodium 7-[(3-methyl-1,2,4-oxadiazol-5-yl)-acetamido]-cephalosporanate (as prepared in Example 10), the acute toxicity was determined in mice (Swiss) with one intraperitoneal administration. The LD50 appeared to be >6000 mg/kg (Cephalotin-LD50 >6000 mg/kg).

[1] = system: Pseud.aerug. Wyeth A 1058; assay: agar serial dilution test; assay type: cell-based; conditions: agar serial dilution, 24 hours, 37° C.
Staph.aureus A 2001 [2] = assay: micro serial dilution test; assay type: cell-based, Staphylococcus aureus; conditions: micro serial dilution (in brackets), about 18 hours, 30° C. or 37° C.
Prot.mirab. L 93 = assay: agar serial dilution test; assay type: cell-based, Proteus mirabilis; conditions: Proteus mirabilis; agar serial dilution, 24 hours, 37° C.; read-out: minimal inhibitory concentration (MIC)
[3] = system: Staph. aureus pen.resistant; assay: protection test; assay type: in vivo; conditions: Staphylococcus aureus, sc
Escherichia coli = assay: protection test; assay type: in vivo; conditions: ip
Salm.dubl. P 43 = assay: agar serial dilution test; assay type: cell-based, Salmonella dublin; conditions: agar serial dilution, 24 hours, 37° C.
Prot.mirab. H 3 = assay: agar serial dilution test; assay type: cell-based, Proteus mirabilis; conditions: Proteus mirabilis, 24 h, read-out: minimal inhibitory concentration (MIC), agar serial dilution, 24 hours, 37° C.
Staph.aureus A 2001 [4] = assay: agar serial dilution test; assay type: cell-based, Staphylococcus aureus; conditions: agar serial dilution, 24 hours, 37° C.
Klebsiella pneumoniae = assay: protection test; assay type: in vivo; conditions: ip, protection test, i.p., read-out: ED50
Past.multo. A 723 = assay: agar serial dilution test; assay type: cell-based, Pasteurella multocida; conditions: agar serial dilution, 24 hours, 37° C.
Prot.morg. 2241 = assay: agar serial dilution test; assay type: cell-based; conditions: agar serial dilution, 24 hours, 37° C.
Staph.aureus A 321 = assay: agar serial dilution test; assay type: cell-based, Staphylococcus aureus; conditions: agar serial dilution, 24 hours, 37° C.
Pseud.aerug. H 10 = assay: agar serial dilution test; assay type: cell-based; conditions: agar serial dilution, 24 hours, 37° C.
Staph.aureus A 2000 [5] = assay: agar serial dilution test; assay type: cell-based, Staphylococcus aureus; conditions: agar serial dilution, 24 hours, 37° C.
Salm.typh. R 127 = assay: agar serial dilution test; assay type: cell-based; conditions: 24 hours, 37° C.
Esch.coli U 20 = assay: agar serial dilution test; assay type: cell-based, Escherichia coli; conditions: Escherichia coli, U20; agar serial dilution, 24 hours, 37° C.; read-out: minimal inhibitory concentration (MIC)
Staph.aureus A 355 [6] = assay: agar serial dilution test; conditions: agar serial dilution, 24 hours, 37° C.; penicillinase-producing strain
Prot.rettg. A 821 = assay: agar serial dilution test; assay type: cell-based, Proteus rettgeri; conditions: agar serial dilution, 24 hours, 37° C.
Pseud.aerug. 2396 = assay: agar serial dilution test; assay type: cell-based; conditions: agar serial dilution, 24 hours, 37° C.
Bac.Subt.ATCC 6633 = assay: agar serial dilution test; assay type: cell-based, Bacillus subtilis; conditions: agar serial dilution, 24 hours, 37° C.
Staph.aureus A 355 [7] = assay: micro serial dilution test; assay type: cell-based, Staphylococcus aureus; conditions: micro serial dilution (in brackets), about 18 hours, 30° C. or 37° C.; penicillinase-producing strain
Strep.haem. A 266 = assay: agar serial dilution test; assay type: cell-based, Streptococcus haemolyticus; conditions: Streptococcus; agar serial dilution, 24 hours, 37° C.; read-out: minimal inhibitory concentration (MIC)
Haem.infl. A 1030 = assay: micro serial dilution test; assay type: cell-based; conditions: micro serial dilution (in brackets), about 18 hours, 30° C. or 37° C.
Proteus rettgeri = assay: protection test; assay type: in vivo; conditions: Providencia rettgeri, sc; protection test, s.c.; read-out: ED50
Shig.equir. T 3 = assay: agar serial dilution test; assay type: cell-based; conditions: 24 hours, 37° C.
Prot.mirab. A 1200 = assay: agar serial dilution test; assay type: cell-based, Proteus mirabilis; conditions: agar serial dilution, 24 hours, 37° C.
Bruc.melit. A 488 = assay: microbe, parasite or virus in culture; assay type: cell-based; conditions: Brucella melitensis, 24 h, read-out: minimal inhibitory concentration (MIC)
in vivo = assay: in vivo; set-up: species or system rabbits; conditions: rabbit, im, 50 mg/kg
Protocol: Blood levels of the above mentioned test compound and of cephalotin were determined after an intramuscular administration of 50 mg/kg of these compounds in an aqueous solution in rabbits. After half an hour for the compound of Example 10, a value of 38.3 μg/ml was found and for cephalotin 33.9 μg/ml. In urine, 35.9% of the administered compound of Example 10 was retrieved, while in the case of cephalotin 22.2% was retrieved within six hours.

Staph.aureus A 2000 [8] = assay: micro serial dilution test; assay type: cell-based, Staphylococcus aureus; conditions: micro serial dilution (in brackets), about 18 hours, 30° C. or 37° C.

CC(=O)OCC1=C(C(=O)O)N2C(=O)[C@@H](NC(=O)Cc3nc(C)no3)[C@H]2SC1 [Example 10, 7-[(3-methyl-1,2,4-oxadiazol-5-yl)-acetamido]-cephalosporanic acid]
minimal inhibitory concentration (MIC) (Strep. faec. L 80): 50 µg/mL (≈ 126 µM)
LD50 (acute toxicity in mice): > 6000 mg/kg
minimal inhibitory concentration (MIC) [1]: > 100 µg/mL
minimal inhibitory concentration (MIC) (Staph.aureus A 2001 [2]): 0.3 µg/mL (≈ 0.757 µM)
MIC (Prot.mirab. L 93): 1.5 µg/mL (≈ 3.78 µM)
ED50 [3]: 31 mg/kg
ED50 (Escherichia coli): 120 mg/kg
minimal inhibitory concentration (MIC) (Salm.dubl. P 43): 3 µg/mL (≈ 7.57 µM)
MIC (Prot.mirab. H 3): 12.5 µg/mL (≈ 31.5 µM)
minimal inhibitory concentration (MIC) (Staph.aureus A 2001 [4]): 1 µg/mL (≈ 2.52 µM)
ED50 (Klebsiella pneumoniae): 2.3 mg/kg
minimal inhibitory concentration (MIC) (Past.multo. A 723): 1.5 µg/mL (≈ 3.78 µM)
minimal inhibitory concentration (MIC) (Prot.morg. 2241): 50 µg/mL (≈ 126 µM)
minimal inhibitory concentration (MIC) (Staph.aureus A 321): 0.25 µg/mL (≈ 0.631 µM)
minimal inhibitory concentration (MIC) (Pseud.aerug. H 10): > 100 µg/mL
minimal inhibitory concentration (MIC) (Staph.aureus A 2000 [5]): 1 µg/mL (≈ 2.52 µM)
minimal inhibitory concentration (MIC) (Salm.typh. R 127): 3 µg/mL (≈ 7.57 µM)
MIC (Esch.coli U 20): 6 µg/mL (≈ 15.1 µM)
minimal inhibitory concentration (MIC) (Staph.aureus A 355 [6]): 1 µg/mL (≈ 2.52 µM)
minimal inhibitory concentration (MIC) (Prot.rettg. A 821): 3 µg/mL (≈ 7.57 µM)
minimal inhibitory concentration (MIC) (Pseud.aerug. 2396): > 100 µg/mL
minimal inhibitory concentration (MIC) (Bac.Subt.ATCC 6633): 0.25 µg/mL (≈ 0.631 µM)
minimal inhibitory concentration (MIC) (Staph.aureus A 355 [7]): 0.6 µg/mL (≈ 1.51 µM)
MIC (Strep.haem. A 266): 0.03 µg/mL (≈ 0.0757 µM)
minimal inhibitory concentration (MIC) (Haem.infl. A 1030): 125 µg/mL (≈ 315 µM)
ED50 (Proteus rettgeri): 1.25 mg/kg
minimal inhibitory concentration (MIC) (Shig.equir. T 3): 3 µg/mL (≈ 7.57 µM)
minimal inhibitory concentration (MIC) (Prot.mirab. A 1200): 6 µg/mL (≈ 15.1 µM)
MIC (Bruc.melit. A 488): 6 µg/mL (≈ 15.1 µM)
concentration at 0.5 h (in vivo): 38300 ng/mL
minimal inhibitory concentration (MIC) (Staph.aureus A 2000 [8]): 0.9 µg/mL (≈ 2.27 µM)
